The text below walks through data of US9073855B2, “BCL-2 selective apoptosis-inducing agents for the treatment of cancer and immune diseases” (AbbVie Inc., priority 2008, dated 2015).

The structures appear in SMILES notation.

One experiment relates to FL5.12/Bcl-2 cells. The experiment in a line: FL5.12/Bcl-2 cell viability assay under IL-3 withdrawal (CellTitre Glo). It is filed as cell-based, murine. To be noted: Mus musculus, IL-3 withdrawn 48 hrs, then 24 hrs with compound. The source says: FL5.12 is an IL-3 dependent prolymphocytic murine cell line that undergoes apoptosis upon IL-3 withdrawal as a result of the upregulation of pro-apoptotic Bcl-2 proteins such as Bim and Puma. Stable overexpression of anti-apoptotic Bcl-2 protein (FL5.12/Bcl-2) protects against apoptosis induced by IL-3 withdrawal by sequestration of Bim and Puma. […] The ability of compounds to kill FL5.12/Bcl-2 cells upon IL-3 withdrawal is a direct measure of the compounds' ability to inhibit anti-apoptotic Bcl-2 protein function.
Wild type FL5.12/Bcl-2 overexpressing stable transfectants were cultured in RPMI-1640 supplemented with 2 mM L-glutamine, 10% FBS, 1 mM sodium pyruvate, 2 mM HEPES, 1% penicillin/streptomycin (Invitrogen), 57 μM β-ME, and 10% WEHI-3B conditioned medium (source of IL-3) and maintained at 37° C. containing 5% CO2. 1×10^6 cells/ml were washed 1×PBS and resuspended in medium not supplemented with 10% WEHI-3B for 48 hrs prior to cytotoxicity assays. Cells were then treated for an additional 24 hrs in the presence of various concentrations of the indicated compounds. Cell viability was assessed by CellTitre Glo assay (Promega Corp.) according to the manufacturer's recommendations.

The target of a further experiment is GST-Bcl-XL (Homo sapiens, UniProt Q07817). The experiment in a line: TR-FRET binding assay, GST-Bcl-XL with F-Bak peptide probe. The following applies: TR-FRET Binding Affinity. The method in brief: (§1)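 Competitive TR-FRET: GST-fusion protein, fluorescent Bak peptide probe and Tb-labelled anti-GST antibody incubated with compound dilution series (starting 50 μM as 2× stock, 10% DMSO) for 3 h at RT. Excitation 340/35 nm; Ki derived via Wang's exact competitive-binding equation.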
Sequence of GST-Bcl-XL (Q07817 whole entry, the tested form may be a part): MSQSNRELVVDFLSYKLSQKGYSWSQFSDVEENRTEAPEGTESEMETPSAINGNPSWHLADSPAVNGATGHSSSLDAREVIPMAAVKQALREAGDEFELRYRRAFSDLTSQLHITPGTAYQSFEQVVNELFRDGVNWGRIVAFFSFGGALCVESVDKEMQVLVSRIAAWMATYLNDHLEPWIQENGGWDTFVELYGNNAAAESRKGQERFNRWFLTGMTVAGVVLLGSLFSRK

For another experiment, the target named is GST-Bcl-2 (Homo sapiens, UniProt P10415). Briefly: TR-FRET binding assay, GST-Bcl-2 with F-Bak peptide probe. To be noted: for Ki: TR-FRET Binding Affinity; for Binding selectivity ratio (Bcl-XL Ki/Bcl-2 Ki): TR-FRET, Bcl-XL Ki divided by Bcl-2 Ki. The method in brief: as §1
Sequence of GST-Bcl-2 (P10415 whole entry): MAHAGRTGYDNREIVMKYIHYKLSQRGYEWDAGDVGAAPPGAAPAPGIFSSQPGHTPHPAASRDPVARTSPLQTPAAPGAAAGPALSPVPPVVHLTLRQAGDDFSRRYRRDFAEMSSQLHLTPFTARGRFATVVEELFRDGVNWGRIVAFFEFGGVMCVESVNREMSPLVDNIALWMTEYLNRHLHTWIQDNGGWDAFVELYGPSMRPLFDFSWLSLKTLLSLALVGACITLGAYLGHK
[1] abbreviates: GST-Bcl-XL, F-Bak peptide probe.

For `CC1(C)CCC(CN2CCN(c3ccc(C(=O)NS(=O)(=O)c4ccc(N[C@H]5CC[C@H](N6CCOCC6)CC5)c([N+](=O)[O-])c4)c(Oc4ccc5[nH]ccc5c4)c3)CC2)=C(c2ccc(Cl)cc2)C1` [Example 178, Trans-4-(4-{[2-(4-chlorophenyl)-4,4-dimethylcyclohex-1-en-1-yl]methyl}piperazin-1-yl)-2-(1H-indol-5-yloxy)-N-({4-[(4-morpholin-4-ylcyclohexyl)amino]-3-nitrophenyl}sulfonyl)benzamide], the EC50 in the experiment on FL5.12/Bcl-2 cells was 18.6 nM. Also, the Ki at GST-Bcl-XL (setting [1]) is more than 660 nM.
Turning to `COCCNc1ccc(S(=O)(=O)NC(=O)c2ccc(N3CCN(CC4=C(c5ccc(Cl)cc5)CC(C)(C)CC4)CC3)cc2Oc2ccc3[nH]ccc3c2)cc1[N+](=O)[O-]` [Example 179, 4-(4-{[2-(4-chlorophenyl)-4,4-dimethylcyclohex-1-en-1-yl]methyl}piperazin-1-yl)-2-(1H-indol-5-yloxy)-N-({4-[(2-methoxyethyl)amino]-3-nitrophenyl}sulfonyl)benzamide], in the experiment with FL5.12/Bcl-2 cells, the EC50 was determined as 23.5 nM. On GST-Bcl-XL (setting [1]), the Ki is more than 660 nM.
Turning to `CC1(C)CCC(CN2CCN(c3ccc(C(=O)NS(=O)(=O)c4ccc(NC[C@@H]5CCCOC5)c([N+](=O)[O-])c4)c(Oc4ccc5[nH]ccc5c4)c3)CC2)=C(c2ccc(Cl)cc2)C1` [Example 180, 4-(4-{[2-(4-chlorophenyl)-4,4-dimethylcyclohex-1-en-1-yl]methyl}piperazin-1-yl)-2-(1H-indol-5-yloxy)-N-[(3-nitro-4-{[(3S)-tetrahydro-2H-pyran-3-ylmethyl]amino}phenyl)sulfonyl]benzamide], the EC50 in the experiment with FL5.12/Bcl-2 cells amounted to 20.5 nM. This molecule showed a Ki at GST-Bcl-XL (setting [1]) of more than 660 nM.
Taken in the same sequence, the figures for `CC1(C)CCC(CN2CCN(c3ccc(C(=O)NS(=O)(=O)c4ccc(NC[C@H]5CCCOC5)c([N+](=O)[O-])c4)c(Oc4ccc5[nH]ccc5c4)c3)CC2)=C(c2ccc(Cl)cc2)C1` [Example 181, 4-(4-{[2-(4-chlorophenyl)-4,4-dimethylcyclohex-1-en-1-yl]methyl}piperazin-1-yl)-2-(1H-indol-5-yloxy)-N-[(3-nitro-4-{[(3R)-tetrahydro-2H-pyran-3-ylmethyl]amino}phenyl)sulfonyl]benzamide] were 33.5 nM and more than 660 nM.
Consider `CC1(C)CCC(CN2CCN(c3ccc(C(=O)NS(=O)(=O)c4ccc(NCC5CCCOC5)c([N+](=O)[O-])c4)c(Oc4ccc5[nH]ccc5c4)c3)CC2)=C(c2ccc(Cl)cc2)C1` (stereo not drawn) [Example 261, 4-(4-{[2-(4-chlorophenyl)-4,4-dimethylcyclohex-1-en-1-yl]methyl}piperazin-1-yl)-2-(1H-indol-5-yloxy)-N-({3-nitro-4-[(tetrahydro-2H-pyran-3-ylmethyl)amino]phenyl}sulfonyl)benzamide], for which the EC50 in the experiment on FL5.12/Bcl-2 cells is 17 nM. This molecule returned a Ki at GST-Bcl-XL (setting [1]) of more than 660 nM.
With `CC1(C)CCC(CN2CCN(c3ccc(C(=O)NS(=O)(=O)c4ccc(OCC5COCCO5)c([N+](=O)[O-])c4)c(Oc4ccc5[nH]ccc5c4)c3)CC2)=C(c2ccc(Cl)cc2)C1` (stereo not drawn) [Example 297, 4-(4-{[2-(4-chlorophenyl)-4,4-dimethylcyclohex-1-en-1-yl]methyl}piperazin-1-yl)-N-{[4-(1,4-dioxan-2-ylmethoxy)-3-nitrophenyl]sulfonyl}-2-(1H-indol-5-yloxy)benzamide], the EC50 in the experiment on FL5.12/Bcl-2 cells came out at 13.2 nM. The molecule further registered a Ki on GST-Bcl-XL (setting [1]) of 283 nM.
Taken in the same sequence, the figures for `CC1(C)CCC(CN2CCN(c3ccc(C(=O)NS(=O)(=O)c4ccc(NCCOC(F)(F)F)c([N+](=O)[O-])c4)c(Oc4ccc5[nH]ccc5c4)c3)CC2)=C(c2ccc(Cl)cc2)C1` [Example 300, 4-(4-{[2-(4-chlorophenyl)-4,4-dimethylcyclohex-1-en-1-yl]methyl}piperazin-1-yl)-2-(1H-indol-5-yloxy)-N-[(3-nitro-4-{[2-(trifluoromethoxy)ethyl]amino}phenyl)sulfonyl]benzamide] were 62.1 nM and more than 660 nM.
Take `CC1(C)CCC(CN2CCN(c3ccc(C(=O)NS(=O)(=O)c4ccc(NCC5CCOCC5)c(S(=O)(=O)C(F)(F)F)c4)c(Oc4ccc5[nH]ccc5c4)c3)CC2)=C(c2ccc(Cl)cc2)C1` [Example 304, 4-(4-{[2-(4-chlorophenyl)-4,4-dimethylcyclohex-1-en-1-yl]methyl}piperazin-1-yl)-2-(1H-indol-5-yloxy)-N-({4-[(tetrahydro-2H-pyran-4-ylmethyl)amino]-3-[(trifluoromethyl)sulfonyl]phenyl}sulfonyl)benzamide]: the EC50 in the experiment on FL5.12/Bcl-2 cells amounted to 415 nM. At GST-Bcl-XL (setting [1]), this molecule had a Ki of more than 660 nM.
As for `COCCNc1ccc(S(=O)(=O)NC(=O)c2ccc(N3CCN(CC4=C(c5ccc(Cl)cc5)CC(C)(C)CC4)CC3)cc2Oc2ccc3[nH]ccc3c2)cc1S(=O)(=O)C(F)(F)F` [Example 315, 4-(4-{[2-(4-chlorophenyl)-4,4-dimethylcyclohex-1-en-1-yl]methyl}piperazin-1-yl)-2-(1H-indol-5-yloxy)-N-({4-[(2-methoxyethyl)amino]-3-[(trifluoromethyl)sulfonyl]phenyl}sulfonyl)benzamide], the EC50 in the experiment with FL5.12/Bcl-2 cells was more than 500 nM. Further, the Ki at GST-Bcl-XL (setting [1]) is more than 660 nM.
As to `O=C(NS(=O)(=O)c1ccc(NCC2CCOCC2)c([N+](=O)[O-])c1)c1ccc(N2CCN(Cc3ccccc3N3CC4CCC(CC4)C3)CC2)cc1Oc1ccccc1` [Example 474, 4-{4-[2-(3-azabicyclo[3.2.2]non-3-yl)benzyl]piperazin-1-yl}-N-({3-nitro-4-[(tetrahydro-2H-pyran-4-ylmethyl)amino]phenyl}sulfonyl)-2-phenoxybenzamide], the EC50 with FL5.12/Bcl-2 cells stood at 93.4 nM. At GST-Bcl-2, this molecule yielded a Ki of 8.1 nM.
Take `O=C(NS(=O)(=O)c1ccc(NCC2CCOCC2)c(S(=O)(=O)C(F)(F)F)c1)c1ccc(N2CCN(Cc3ccccc3N3CC4CCC(CC4)C3)CC2)cc1Oc1ccccc1` [Example 475, 4-{4-[2-(3-azabicyclo[3.2.2]non-3-yl)benzyl]piperazin-1-yl}-2-phenoxy-N-({4-[(tetrahydro-2H-pyran-4-ylmethyl)amino]-3-[(trifluoromethyl)sulfonyl]phenyl}sulfonyl)benzamide]: the concentration for a half-maximal effect (EC50) in the experiment on FL5.12/Bcl-2 cells turned out to be 223 nM.
For `O=C(NS(=O)(=O)c1ccc(NCCCN2CCOCC2)c([N+](=O)[O-])c1)c1ccc(N2CCN(Cc3ccccc3N3CC4CCC(CC4)C3)CC2)cc1Oc1ccccc1` [Example 477, 4-{4-[2-(3-azabicyclo[3.2.2]non-3-yl)benzyl]piperazin-1-yl}-N-({4-[(3-morpholin-4-ylpropyl)amino]-3-nitrophenyl}sulfonyl)-2-phenoxybenzamide], the EC50 with FL5.12/Bcl-2 cells was more than 1670 nM. The Ki at GST-Bcl-2 is 8.5 nM.
For the molecule `O=C(NS(=O)(=O)c1ccc(NCC2CCOCC2)c([N+](=O)[O-])c1)c1ccc(N2CCN(Cc3ccccc3C3=C[C@H]4C[C@@H]3C3CCCC34)CC2)cc1Oc1ccccc1` (stereo partly drawn) [Example 478, 4-(4-{2-[(4R,7S)-2,3,3a,4,7,7a-hexahydro-1H-4,7-methanoinden-5-yl]benzyl}piperazin-1-yl)-N-({3-nitro-4-[(tetrahydro-2H-pyran-4-ylmethyl)amino]phenyl}sulfonyl)-2-phenoxybenzamide], in the experiment on FL5.12/Bcl-2 cells, the EC50 was more than 5000 nM.
Take `CC1(C)CCC(CN2CCN(c3ccc(C(=O)NS(=O)(=O)c4ccc(OCC5(F)CCN(C6COC6)CC5)c(C#N)c4)c(Oc4cccc5[nH]ncc45)c3)CC2)=C(c2ccc(Cl)cc2)C1` [Example 534, 4-(4-{[2-(4-chlorophenyl)-4,4-dimethylcyclohex-1-en-1-yl]methyl}piperazin-1-yl)-N-[(3-cyano-4-{[4-fluoro-1-(oxetan-3-yl)piperidin-4-yl]methoxy}phenyl)sulfonyl]-2-(1H-indazol-4-yloxy)benzamide]: at GST-Bcl-XL, the Ki worked out at 46 nM. In addition, at GST-Bcl-2, the Ki was less than 0.01 nM and the “Binding selectivity ratio (Bcl-XL Ki/Bcl-2 Ki)” value is more than 4603.9.
Taken in the same sequence, the figures for `CC1(C)CCC(CN2CCN(c3ccc(C(=O)NS(=O)(=O)c4ccc(OCC5CCC6(CC5)COC6)c([N+](=O)[O-])c4)c(Oc4cccc5[nH]ncc45)c3)CC2)=C(c2ccc(Cl)cc2)C1` [Example 535, 4-(4-{[2-(4-chlorophenyl)-4,4-dimethylcyclohex-1-en-1-yl]methyl}piperazin-1-yl)-2-(1H-indazol-4-yloxy)-N-{[3-nitro-4-(2-oxaspiro[3.5]non-7-ylmethoxy)phenyl]sulfonyl}benzamide] were 2.5 nM, less than 0.01 nM and more than 250.5.
On the same counts, the results for `CC1(C)CCC(CN2CCN(c3ccc(C(=O)NS(=O)(=O)c4cnc(OCC5CCc6nccn6C5)c(Cl)c4)c(Oc4cccc5[nH]ncc45)c3)CC2)=C(c2ccc(Cl)cc2)C1` (stereo not drawn) [Example 536, 4-(4-{[2-(4-chlorophenyl)-4,4-dimethylcyclohex-1-en-1-yl]methyl}piperazin-1-yl)-N-{[5-chloro-6-(5,6,7,8-tetrahydroimidazo[1,2-a]pyridin-6-ylmethoxy)pyridin-3-yl]sulfonyl}-2-(1H-indazol-4-yloxy)benzamide] are 22.2 nM, 0.025 nM and 886.1.
